Literature values, collected in patent US20020147153A1, “Nutritional supplement to alleviate symptoms associated with reduced levels of serotonin” (Functional Foods, Inc., priority 2001, published 2002).

What was measured:
[1] = area under glycemic response curve, 2-hour period after 50 g carbohydrate, relative to white bread or glucose standard

Compound	time to increased mental alertness (safe and rapid manner)	time of maximum effect (then almost entirely excreted) [h]	glycemic index (GI) [1]
Cn1c(=O)c2c(ncn2C)n(C)c1=O [Caffeine]	approximately 30 minutes	2 to 4.5	–
O=C(CO)[C@@H](O)[C@H](O)[C@H](O)CO [Fructose]	–	–	32
